Experimental data as given in BindingDB's records for patent US11208411 (The Regents of the University of California; Washington …, 2021).

Target: Proto-oncogene tyrosine-protein kinase Src (Homo sapiens, UniProt P12931)
Assay: Expression and Purification of Active Kinases

Chain of Proto-oncogene tyrosine-protein kinase Src (P12931 2-536 limits assumed): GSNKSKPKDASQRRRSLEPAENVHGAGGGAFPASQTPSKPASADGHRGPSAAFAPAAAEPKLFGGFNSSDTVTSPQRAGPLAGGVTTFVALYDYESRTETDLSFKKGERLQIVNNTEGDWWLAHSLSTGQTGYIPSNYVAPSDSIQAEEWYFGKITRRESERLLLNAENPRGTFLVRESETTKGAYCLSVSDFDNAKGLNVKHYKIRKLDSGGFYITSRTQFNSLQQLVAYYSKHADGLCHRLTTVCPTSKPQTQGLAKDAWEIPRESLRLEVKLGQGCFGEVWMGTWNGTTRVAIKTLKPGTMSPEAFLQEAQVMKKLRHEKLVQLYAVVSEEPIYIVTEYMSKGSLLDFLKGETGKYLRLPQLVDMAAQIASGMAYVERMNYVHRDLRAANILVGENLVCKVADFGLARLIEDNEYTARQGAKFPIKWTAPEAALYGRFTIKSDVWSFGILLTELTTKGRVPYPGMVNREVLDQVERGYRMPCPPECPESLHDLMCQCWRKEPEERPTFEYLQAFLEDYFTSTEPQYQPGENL

IC50: 1.57 µM
Structure (SMILES): CC(C)(C)n1nc(Cc2coc3ccccc23)c2c(N)ncnc21 [US11208411, Cmpd LJQ-145]
